Reference: patent US8679832B2, “Detection of protein translocation by beta-galactosidase reporter fragment complementation” (The Board of Trustees of the Leland Stanford Junior …, priority 2004, dated 2014)
Read-outs that look alike come from different tables or passages of the source.

Assays:
C1A domain from PKCγ = biological target: T1, C1A domain from PKCγ (Homo sapiens, UniProt P05129); assay: Plasma membrane translocation assay: C1A domain of PKCγ fused to GFP-α mutants, tEGFR-ω in NIH 3T3 cells, β-galactosidase complementation; assay type: cell-based
T1 construct: the C1A domain from PKCγ was fused to four of the GFP-α point mutants; β-galactosidase α peptide carrying H31R, E41Q, N39D or N39Q (β-gal numbering; the mutation lies in the tag, not in PKCγ); expressed in transfected cells; host or cells: NIH 3T3 cells expressing tEGFR-ω
Excerpt: Creation of a plasma membrane translocation assay required expression of the ω fragment at the membrane which was achieved using the tEGFR-ω construct. When the target protein-α fusion move from the cytosol to the membrane, the local increased concentration of a peptide should drive complementation as illustrated in FIG. 4B. To determine which of the mutants would work best in this type of assay the C1A domain from PKCγ was fused to four of the GFP-α point mutants that complemented to varying degrees, H31R, E41Q, N39D, and N39Q. […] The ω fragment was tethered to the plasma membrane using the extracellular and transmembrane regions of the EGFR. Four of the mutants were fused to the C1A domain of PKCγ and co-expressed with the tEGFR. Their responses to 1 μM PMA for 20 min were expressed as a fold induction over background. The C1A domain efficiently translocated to the plasma membrane when exposed to phorbol esters such as PMA (FIG. 4C). The fusion proteins were expressed in NIH 3T3 cells expressing the tEGFR-ω, and assayed for increased complementation in the presence of PMA for 30 min.
The translocation of the C1A domain in response to PMA stimulation has been extensively characterized by fusion to GFP. The largest increase in fluorescence at the plasma membrane in response to PMA was reported to be 70% with the lowest dose of PMA detected using these methods being between 10 and 100 nM. […] Importantly, the requirement of the co fragment for complementation ensured that enzyme activity was only generated where the co-fragment was localized. Thus, the assay measured increases in protein concentration at a specific location in the cell.

C1A domain = biological target: T2, C1A domain (Homo sapiens, UniProt P05129); conditions: C1A-GFP, response to PMA, reported; cited from earlier work
T2 construct: The translocation of the C1A domain in response to PMA stimulation has been extensively characterized by fusion to GFP

glucocorticoid receptor = glucocorticoid receptor (Homo sapiens, UniProt P04150); conditions: 30 min of treatment
Excerpt: To test the applicability of the system to a physiological translocation event the glucocoticoid receptor was fused to the amino-terminus of the GFP-α fusion. The glucocoticoid receptor is a nuclear steroid hormone receptor that undergoes a robust nuclear translocation in response to treatment with various hormones including dexamethasone. This construct was stably introduced into both the co-NLS and tEGFR-ω cell lines then assayed for changes in β-galactosidase activity upon treatment of the cells with dexamethasone using the luminescent β-galactosidase substrate.
Cell lines shown in FIG. 3 A were treated with varying concentrations of dexamethasone and assayed over time. […] The GR-α cell lines were treated with 1 μM dexamethasone (red) for 3 hours then stained with the luorescent β-galactosidase DDAO substrate and analyzed by low cytometry.

[1] = system: Crm1 mediated nuclear export; assay: Nuclear translocation gain of signal assay: NES-GFP-α-NLS co-expressed with ω-NLS, β-galactosidase complementation, luminescent substrate; assay type: cell-based, mouse; conditions: leptomycin B for 2 hours, C2C12 myoblasts
Excerpt: In order to utilize a complementation as a method of quantitatively assessing nuclear translocation events, two systems were designed that are distinct in the localization of the ω-fragment. FIG. 2A is a schematic showing the design of the nuclear translocation assay. In the let panel, the ω fragment is localized to the nucleus with a nuclear localization signal (NLS) and the cytosolic protein of interest is fused to the minimal α peptide. Upon stimulation the α fusion moves to the nucleus and complements the co, increasing β-galactosidase activity. In the right panel, the co fragment is tethered to the plasma membrane using the extracellular and transmembrane regions of EGFR. The cytosolic α-fusion complements spontaneously until stimulation when it translocates to the nucleus which results in a loss of enzyme activity.
The gain of signal assay (FIG. 2A left panel) localized the ω to the nucleus through fusion to a triplet SV40 nuclear localization signal (NLS). Thus, an increase in β-galactosidase activity should be observed when the target protein-α fusion moves from the cytosol to the nucleus. The loss of signal assay (FIG. 2 A right panel) localized the ω-fragment to the plasma membrane through fusion to the extracellular and transmembrane regions of the EGF receptor (tEGFR). […]

PH domain of AKT = assay: AKT PH domain plasma membrane translocation: AKT-GFP-α in 3T3 fibroblasts with tEGFR-ω, luminescent β-galactosidase assay, 96-well; assay type: cell-based; conditions: 50 ng/ml PDGF, insulin, or sorbitol; 3T3 cells; maximal over time course
Protocol: To test whether the system was robust enough to monitor translocation events in response to physiologically relevant stimuli, this system was applied to the translocation of the PH domain of AKT. […] The PH domain of AKT was fused to the GFP-α chimera and expressed in 3T3 fibroblasts harboring the tEGFR-ω protein. […] The cells were stimulated under various conditions, and the translocation of the PH domain was assayed in 96-well dishes by a luminescent measure of β-galactosidase activity.

Sequence of glucocorticoid receptor (P04150 whole entry, species assumed, the tested form may be a part): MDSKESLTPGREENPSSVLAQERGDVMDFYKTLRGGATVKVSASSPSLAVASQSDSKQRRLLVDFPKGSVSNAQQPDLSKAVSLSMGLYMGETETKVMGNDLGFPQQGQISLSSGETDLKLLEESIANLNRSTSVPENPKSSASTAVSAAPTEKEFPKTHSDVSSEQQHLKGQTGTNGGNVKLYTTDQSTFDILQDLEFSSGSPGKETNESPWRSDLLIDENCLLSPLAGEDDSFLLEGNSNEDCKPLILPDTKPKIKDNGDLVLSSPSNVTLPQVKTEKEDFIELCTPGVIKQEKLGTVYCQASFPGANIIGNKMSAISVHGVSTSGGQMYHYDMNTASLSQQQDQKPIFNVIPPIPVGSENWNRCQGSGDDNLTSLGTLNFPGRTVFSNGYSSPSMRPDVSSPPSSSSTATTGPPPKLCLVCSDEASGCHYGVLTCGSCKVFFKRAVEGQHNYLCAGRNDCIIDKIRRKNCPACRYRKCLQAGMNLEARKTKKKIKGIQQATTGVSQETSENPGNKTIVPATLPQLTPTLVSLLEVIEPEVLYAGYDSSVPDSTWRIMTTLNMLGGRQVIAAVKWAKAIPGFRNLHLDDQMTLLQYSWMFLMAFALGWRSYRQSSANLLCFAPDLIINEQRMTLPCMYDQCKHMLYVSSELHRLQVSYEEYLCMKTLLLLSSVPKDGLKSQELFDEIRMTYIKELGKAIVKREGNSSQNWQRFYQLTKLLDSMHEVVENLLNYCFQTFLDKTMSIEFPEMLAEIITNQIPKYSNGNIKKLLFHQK

CCCCCCCCCCCCCC(=O)O[C@@H]1[C@@H](C)[C@@]2(O)[C@@H](C=C(CO)C[C@]3(O)C(=O)C(C)=C[C@@H]23)[C@@H]2C(C)(C)[C@]12OC(C)=O [PMA]
increase in signal (C1A domain from PKCγ; 800 nM PMA (saturating)): 1000% | saturating PMA concentration (C1A domain from PKCγ; C1A domain membrane translocation assay): 800 nM | increases in enzyme activity in the presence of PMA (C1A domain from PKCγ; β-galactosidase complementation, H31R): 700-1000% | largest increase in fluorescence at the plasma membrane (C1A domain): 70%

C[C@@H]1C[C@H]2[C@@H]3CCC4=CC(=O)C=C[C@]4(C)[C@@]3(F)[C@@H](O)C[C@]2(C)[C@@]1(O)C(=O)CO [dexamethasone]
difference in β-galactosidase activity (glucocorticoid receptor; gain of signal): 100% | difference in β-galactosidase activity (glucocorticoid receptor; loss of signal): 25%

CCC(=C/[C@H](C)C/C=C/C(C)=C/[C@@H](C)C(=O)[C@@H](C)[C@H](O)[C@@H](C)C/C(C)=C/C(=O)O)/C=C/[C@@H]1OC(=O)C=C[C@@H]1C [leptomycin B]
increase in β-galactosidase activity [1]: 3.5 fold

OC[C@@H](O)[C@@H](O)[C@H](O)[C@@H](O)CO [sorbitol]
increase in β-galactosidase activity (PH domain of AKT): 8 fold

H31R: α peptide of β-galactosidase with H31R mutation, low affinity (MGVITDSLAVVLQRRDWENPGVTQLNRLAARPPFASWRNSEEARTDRPSQQL; E. coli; PEPTIDE (1)..(52) alpha peptide (H31R))
induction of β-galactosidase activity in the presence of PMA (C1A domain from PKCγ; C1A-GFP-α mutant, 1 μM PMA, NIH 3T3 tEGFR-ω): 7 fold

platelet-derived growth factor [PDGF]
increase in β-galactosidase activity (PH domain of AKT): 5 fold

wt peptide: wild type α peptide of β-galactosidase (MGVITDSLAVVLQRRDWENPGVTQLNRLAAHPPFASWRNSEEARTDRPSQQL; E. coli; PEPTIDE (1)..(52) alpha peptide (wildtype))
increase in β-galactosidase activity in the presence of PMA (C1A domain from PKCγ; C1A-GFP-α wt peptide, PMA, NIH 3T3 tEGFR-ω): < 10%
